# According to patent US11938189B2, “Compositions and methods for stabilizing protein-containing formulations” (Genentech, Inc., priority 2010, dated 2024):
# Tests used:
# Type in all cases: physicochemical
# [1] = test system: anti-MUC16 monoclonal antibody; test: Stirring-induced aggregation (500 rpm), turbidity; settings: surfactant at one-tenth of its CMC; stirring 500 rpm, ambient temperature, 90 minutes; FIG. 2
# Method: In this set of studies, a Tefloncoated magnetic stir bar was used to induce agitation in a buffered solution (20 mM histidine-acetate, pH 5.5) of monoclonal antibody. 3 ml of the antibody solution was filled in a 6 cc glass vial and the solution was stirred at 500 rpm using a Teflon-coated stir bar. The solution was stirred for a period of 90 minutes and samples were withdrawn at regular intervals and analyzed for turbidity as an indication of formation of insoluble aggregates. Various surfactants of the class of alkylglycosides were evaluated for their effectiveness to prevent protein aggregation during shaking. The surfactants were used at concentrations below their respective critical micelle concentration (CMC) or above their respective CMC.
# FIGS. 2 and 3 show the time-course of turbidity formation in a solution of the anti-MUC16 monoclonal antibody following stirring at 500 rpm using a Teflon-coated magnetic bar at ambient temperature for a period of 90 minutes. Turbidity was evaluated in solutions containing no surfactant as well as in solutions containing different alkylglycoside surfactants or polysorbate 20. […]
# [2] = test system: anti-CD22 monoclonal antibody; test: Shaking at 300 rpm, turbidity of antibody formulation; settings: 0.23 mM (0.02% w/v) polysorbate 20 or 3.6 mM (0.1% w/v) n-octyl-β-D-glucopyranoside; shaking 300 rpm, 72 hours, 37° C.; FIG. 9
# Method: (§1) In this set of studies, a buffered solution (20 mM sodium phosphate buffer, pH 7.4) of monoclonal antibody was subjected to shaking on an orbital shaker at 150 rpm, at a controlled temperature of 37° C. These studies were carried out using a 3 ml solution fill of the antibody solution in a 6 cc glass vial. Samples were withdrawn at regular intervals and analyzed for percent monomer using size-exclusion chromatography. Various surfactants of the class of alkylglycosides were evaluated for their effectiveness to prevent protein aggregation during shaking. The surfactants were used at concentrations below their respective critical micelle concentration (CMC) or above their respective CMC.
# (§2) In FIGS. 6-9, the effect of 0.23 mM (0.02% w/v) polysorbate 20 or 3.6 mM (0.1% w/v) n-octyl-β-D-glucopyranoside on the turbidity of aqueous formulations of an anti-MUC16 monoclonal antibody (FIG. 6), an anti-IgE monoclonal antibody (FIG. 7), an anti-CD11a monoclonal antibody (FIG. 8), and an anti-CD22 monoclonal antibody (FIG. 9), during shaking at 300 rpm for 72 hours at 37° C. was investigated.
# [3] = test system: anti-CD11a monoclonal antibody; test: as above; settings: 0.23 mM (0.02% w/v) polysorbate 20 or 3.6 mM (0.1% w/v) n-octyl-β-D-glucopyranoside; shaking 300 rpm, 72 hours, 37° C.; FIG. 8
# Method: as §1, §2
# [4] = test system: anti-IgE monoclonal antibody; test: as above; settings: 0.23 mM (0.02% w/v) polysorbate 20 or 3.6 mM (0.1% w/v) n-octyl-β-D-glucopyranoside; shaking 300 rpm, 72 hours, 37° C.; FIG. 7
# Method: as §1, §2
# [5] = test system: anti-MUC16 monoclonal antibody; test: Shaking-induced aggregation (150 rpm), percent monomer by size-exclusion chromatography; settings: surfactant at one half of its CMC; shaking 150 rpm, 37° C., 64 hours; FIG. 1
# Method: as §1
# The surfactants were employed at one half the concentration of their respective CMC values, i.e., 1.1 mM (0.035% w/v) n-decyl-β-D-glucopyranoside, 9 mM (0.24%) n-octyl-β-D-glucopyranoside and 0.04 mM (0.0035%) polysorbate 20.
# [6] = Hydrogen peroxide formation in stored surfactant solutions (Amplex Red Hydrogen Peroxide assay); settings: 0.1% w/v surfactant in water, stored at 40° C. for one month; FIG. 14
# Method: In a first experiment, solutions of surfactants of the class of alkylglycosides, i.e., n-decyl-β-D-glucopyranoside, n-octyl-β-D-glucopyranoside, and n-decyl-β-D-maltopyranoside, as well as polysorbate 20 at a concentration of 0.1% w/v in water were stored at 40° C. for a period of one month. Samples were then withdrawn and analyzed for the presence of hydrogen peroxide using the Amplex Red Hydrogen Peroxide assay. the results of these analyses are shown in FIG. 14.
# [7] = test system: anti-CD11a monoclonal antibody; test: Oxidation of Met256 on storage in surfactant-containing antibody solution; settings: 0.1% w/v surfactant, FIG. 15
# Method: In a second experiment, oxidation of the Met256 amino acid residue in an anti-CD11a monoclonal antibody in solutions containing either n-decyl-β-D-glucopyranoside, n-octyl-β-D-glucopyranoside, or polysorbate 20 was evaluated. For this purpose, 3 ml of the buffered antibody solution (pH 6.0) containing 0.1% w/v of the surfactant was stored in 6 cc vials at either 5° C. or 40° C. for a period of either 2 or 4 weeks.
# [8] = test system: Humanized anti-oxidized LDL monoclonal antibody; test: Light-induced oxidation of tryptophan residues (LC/MS/MS tryptic peptide map); settings: Light 24 hrs; 0.02% surfactant
# Method: MAb samples and light treatment: Humanized anti-oxidized LDL monoclonal antibody, was produced at Genentech, Inc. from a CHO cell line. Three independent samples were prepared for photostability studies: 1) control sample, vial wrapped with aluminum foil; 2) test sample, vial light exposed (unwrapped); 3) test sample, vial light exposed (unwrapped) containing the specified non-ionic surfactant. Both control & light exposed samples were kept in a light box for 24 hrs. Light exposure following ICH guideline with following setting for a Atlas SUNTEST CPS+Light Box: Irradiance level=250 watts/square meter; Time set for 24 hours; Total UV dose=538 watt-hours/square meter; Total visible dose=1,320,000 lux-hours.
# LC/MS/MS of tryptic MAb peptide map: Samples were digested with trypsin after reduction and alkylation. The resulting peptides were analyzed with a Thermo LTQ-Orbitrap mass spectrometer coupled with an Agilent 1200 capillary HPLC system. HPLC column: Jupiter 5 um C18 250×1.0 mm, flow rate: 70 uL/min, column oven temperature: 55° C. Solvent A: 0.1% TFA in water, B: 0.09% TFA in 90% ACN. Orbitrap setting: MS resolution 60000, MS/MS collected in data dependent mode, using LTQ.
# The effect of light, and the protective effect of non-ionic surfactants, on the oxidation of tryptophan residues on an anti-oxidized LDL antibody was determined.
# [9] = test system: anti-MUC16 monoclonal antibody; test: Shaking at 300 rpm, turbidity of antibody formulation; settings: 0.23 mM (0.02% w/v) polysorbate 20 or 3.6 mM (0.1% w/v) n-octyl-β-D-glucopyranoside; shaking 300 rpm, 72 hours, 37° C.; FIG. 6
# Method: as §1
# In FIG. 4, the effect of varying the concentration of n-octyl-β-D-glucopyranoside on the turbidity of anti-MUC16 monoclonal antibody formulations during shaking at 300 rpm for 72 hours at 37° C. was investigated.
# as §2
substance,measurement,setting,value
"polyoxyethylene sorbitan monolaurate [polysorbate 20, reference compound]",prevention of turbidity development on stirring,[1],effective in preventing turbidity development
same,inhibition of visible antibody aggregates measured by turbidity formation,[2],effectively inhibited the formation of visible antibody aggregates
same,inhibition of visible antibody aggregates measured by turbidity formation,[3],effectively inhibited the formation of visible antibody aggregates
same,inhibition of visible antibody aggregates measured by turbidity formation,[4],effectively inhibited the formation of visible antibody aggregates
same,prevention of shaking-induced loss of percent monomer,[5],not effective in preventing shaking-induced loss of monomer
same,hydrogen peroxide formed in surfactant solution,[6],about 10 μM
same,percent of Met256 residues oxidized,"[7]; pH 6.0, storage at 40° C. for 4 weeks",approximately 16%
same,percent of Met256 residues oxidized,"[7]; pH 6.0, time zero",approximately 2%
same,% Oxidized Trp33,[8],0.6%
same,% Oxidized Trp92,[8],8.9%
same,inhibition of visible antibody aggregates measured by turbidity formation,[9],effectively inhibited the formation of visible antibody aggregates
